These results are taken from US5254541A, “(Quinolin-2-ylmethoxy)indole/cyclodextrin complex” (Merck Frosst Canada, Inc., priority 1991, dated 1993).

A short description of data set [1]: solid state characteristics of the crystalline sodium salt. In kind it is physicochemical. The settings on record: non-hygroscopicity, physical stability, etc.
Data set [2] in a line: oral bioavailability, general statement. The settings on record: in vivo.
A short description of a further data set: aqueous solubility. The settings on record: water, crystalline sodium salt. In kind it is physicochemical.
Data set [3] is classed as physicochemical. Here is the method: Phase solubility experiments were conducted by adding excess amounts (20 mg/mL) of L-686,708, sodium salt, to aqueous solutions (pH=9) containing various amounts of cyclodextrin and mixing on a rotating mixer. After equilibration at room temperature for at least 48 hrs, aliquots of the mixture were centrifuged to separate the undissolved sodium salt. The supernatant was diluted and dissolved L-686,708 concentration measured by HPLC. […] This stability constant is a tentative measure of complex formation.

Each structure is given as a SMILES string. Where a name gives a salt, the structure may show the parent alone.

As to `CC(C)(C)Sc1c(CC(C)(C)C(=O)O)n(Cc2ccc(Cl)cc2)c2ccc(OCc3ccc4ccccc4n3)cc12` [L-686,708 sodium salt, Crystalline 3-[N-(p-chlorobenzyl)-3-(t-butylthio)-5-(quinolin-2-ylmethoxy)indol-2-yl]-2.2-dimethylpropanoic acid, sodium salt], in data set [1], the “solid state characteristics (in words)” value was “good solid state characteristics, such as non-hygroscopicity, physical stability”. In addition, in data set [2], the “oral bioavailability (in words)” value was “low oral bioavailability”. The solubility in the data set “aqueous solubility” lay in the range of 5 to 30 µg/mL. In addition, the “type of solubility curve (Higuchi)” value in data set [3] is on record as “An -type”.

The solubility is the concentration that dissolves in the medium under given conditions.
